Measurements taken from PubChem BioAssay AID1963964 (Molecular Pharmacology Branch, DTP, NCI, 2024).

Test system: 997726-040-R-J2-PDC tumor spheroids, viability
Test: Anticancer human tumor 997726-040-R-J2-PDC patient-derived squamous cell lung carcinoma cell line growth inhibition [PI3K]
Details: spheroids with HUVEC and MSC; for IC50: curve of first compound; for viability, T/C: stronger effect = lower value
Procedure, shortened: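 Tumor cells were combined with HUVEC and MSCs into spheroids, then dosed with PI3K-inhibitor combinations over half-log ranges capped near clinical Cmax or 10 microM.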
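Note: spheroids exposed to compounds for seven days before readout.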

Compound: Cn1cnc2c(F)c(Nc3ccc(Br)cc3Cl)c(C(=O)NOCCO)cc21 + CC(Nc1ncnc2nc[nH]c12)c1cc2cccc(Cl)c2c(=O)n1-c1ccccc1
- IC50 (second compound 0.0316 µM): 553 nM
- IC50 (second compound 0.1 µM): 467 nM
- IC50 (second compound 0.316 µM): 319 nM
- IC50 (second compound 1 µM): 574 nM
- IC50 (second compound 3.16 µM): 60.1 nM
- IC50 (second compound 10 µM): < 9.49 nM
- viability, T/C (second compound 0.0316 µM, first compound 0.00949 µM): 66.7%
- viability, T/C (second compound 0.0316 µM, first compound 0.03 µM): 64.8%
- viability, T/C (second compound 0.0316 µM, first compound 0.0949 µM): 55.7%
- viability, T/C (second compound 0.0316 µM, first compound 0.3 µM): 54.2%
- viability, T/C (second compound 0.0316 µM, first compound 0.949 µM): 45.7%
- viability, T/C (second compound 0.0316 µM, first compound 3 µM): 44.4%
- viability, T/C (second compound 0.1 µM, first compound 0.00949 µM): 84.3%
- viability, T/C (second compound 0.1 µM, first compound 0.03 µM): 68.9%
- viability, T/C (second compound 0.1 µM, first compound 0.0949 µM): 55.1%
- viability, T/C (second compound 0.1 µM, first compound 0.3 µM): 54.9%
- viability, T/C (second compound 0.1 µM, first compound 0.949 µM): 49.8%
- viability, T/C (second compound 0.1 µM, first compound 3 µM): 41.5%
- viability, T/C (second compound 0.316 µM, first compound 0.00949 µM): 71.5%
- viability, T/C (second compound 0.316 µM, first compound 0.03 µM): 62.2%
- viability, T/C (second compound 0.316 µM, first compound 0.0949 µM): 54.1%
- viability, T/C (second compound 0.316 µM, first compound 0.3 µM): 51.1%
- viability, T/C (second compound 0.316 µM, first compound 0.949 µM): 49.1%
- viability, T/C (second compound 0.316 µM, first compound 3 µM): 40.5%
- viability, T/C (second compound 1 µM, first compound 0.00949 µM): 72%
- viability, T/C (second compound 1 µM, first compound 0.03 µM): 70.1%
- viability, T/C (second compound 1 µM, first compound 0.0949 µM): 51.5%
- viability, T/C (second compound 1 µM, first compound 0.3 µM): 55.8%
- viability, T/C (second compound 1 µM, first compound 0.949 µM): 49.9%
- viability, T/C (second compound 1 µM, first compound 3 µM): 42.4%
- viability, T/C (second compound 3.16 µM, first compound 0.00949 µM): 56.8%
- viability, T/C (second compound 3.16 µM, first compound 0.03 µM): 56%
- viability, T/C (second compound 3.16 µM, first compound 0.0949 µM): 46.3%
- viability, T/C (second compound 3.16 µM, first compound 0.3 µM): 42.4%
- viability, T/C (second compound 3.16 µM, first compound 0.949 µM): 40.7%
- viability, T/C (second compound 3.16 µM, first compound 3 µM): 35.2%
- viability, T/C (second compound 10 µM, first compound 0.00949 µM): 46.1%
- viability, T/C (second compound 10 µM, first compound 0.03 µM): 38.5%
- viability, T/C (second compound 10 µM, first compound 0.0949 µM): 32.6%
- viability, T/C (second compound 10 µM, first compound 0.3 µM): 30.7%
- viability, T/C (second compound 10 µM, first compound 0.949 µM): 32.6%
- viability, T/C (second compound 10 µM, first compound 3 µM): 24.7%

Compound: C#Cc1c(F)ccc2cc(O)cc(-c3ncc4c(N5CC6CCC(C5)N6)nc(OCC56CCCN5CC(F)C6)nc4c3F)c12 (centres undefined) + Cc1nc(NC(=O)N2CCCC2C(N)=O)sc1-c1ccnc(C(C)(C)C(F)(F)F)c1
- IC50 (second compound 0.0316 µM): > 10000 nM
- IC50 (second compound 0.1 µM): > 10000 nM
- IC50 (second compound 0.316 µM): 220 nM
- IC50 (second compound 1 µM): < 31.6 nM
- IC50 (second compound 3.16 µM): < 31.6 nM
- IC50 (second compound 10 µM): < 31.6 nM
- viability, T/C (second compound 0.0316 µM, first compound 0.0316 µM): 89.9%
- viability, T/C (second compound 0.0316 µM, first compound 0.1 µM): 88.9%
- viability, T/C (second compound 0.0316 µM, first compound 0.316 µM): 84%
- viability, T/C (second compound 0.0316 µM, first compound 1 µM): 81.3%
- viability, T/C (second compound 0.0316 µM, first compound 3.16 µM): 77.9%
- viability, T/C (second compound 0.0316 µM, first compound 10 µM): 75.5%
- viability, T/C (second compound 0.1 µM, first compound 0.0316 µM): 77.4%
- viability, T/C (second compound 0.1 µM, first compound 0.1 µM): 71.4%
- viability, T/C (second compound 0.1 µM, first compound 0.316 µM): 74.6%
- viability, T/C (second compound 0.1 µM, first compound 1 µM): 79.8%
- viability, T/C (second compound 0.1 µM, first compound 3.16 µM): 60.9%
- viability, T/C (second compound 0.1 µM, first compound 10 µM): 55%
- viability, T/C (second compound 0.316 µM, first compound 0.0316 µM): 59.6%
- viability, T/C (second compound 0.316 µM, first compound 0.1 µM): 51.2%
- viability, T/C (second compound 0.316 µM, first compound 0.316 µM): 51%
- viability, T/C (second compound 0.316 µM, first compound 1 µM): 44.3%
- viability, T/C (second compound 0.316 µM, first compound 3.16 µM): 42.9%
- viability, T/C (second compound 0.316 µM, first compound 10 µM): 41.9%
- viability, T/C (second compound 1 µM, first compound 0.0316 µM): 41.4%
- viability, T/C (second compound 1 µM, first compound 0.1 µM): 39.5%
- viability, T/C (second compound 1 µM, first compound 0.316 µM): 41.7%
- viability, T/C (second compound 1 µM, first compound 1 µM): 40.3%
- viability, T/C (second compound 1 µM, first compound 3.16 µM): 40.3%
- viability, T/C (second compound 1 µM, first compound 10 µM): 30%
- viability, T/C (second compound 3.16 µM, first compound 0.0316 µM): 30.8%
- viability, T/C (second compound 3.16 µM, first compound 0.1 µM): 27.2%
- viability, T/C (second compound 3.16 µM, first compound 0.316 µM): 31.2%
- viability, T/C (second compound 3.16 µM, first compound 1 µM): 28.5%
- viability, T/C (second compound 3.16 µM, first compound 3.16 µM): 30.5%
- viability, T/C (second compound 3.16 µM, first compound 10 µM): 21.9%
- viability, T/C (second compound 10 µM, first compound 0.0316 µM): 15.8%
- viability, T/C (second compound 10 µM, first compound 0.1 µM): 17.6%
- viability, T/C (second compound 10 µM, first compound 0.316 µM): 13.4%
- viability, T/C (second compound 10 µM, first compound 1 µM): 17.6%
- viability, T/C (second compound 10 µM, first compound 3.16 µM): 14.1%
- viability, T/C (second compound 10 µM, first compound 10 µM): 15.8%
